Common to all, as to type: cell-based
For one experiment, the system named is U937 (KRAS, NRAS-wt). As to the kind of experiment: Anti-proliferation assay on U937. As to conditions: Homo sapiens, U-937; 72 h treatment; average with SD (n = 3, duplicate). Here is the method: (§1) Ba/F3-parental, OCI-AML3, U397 cells were purchased from DSMZ. MDA-MB-231, HCT-116, AsPC-1, H358, HT-29, SW480, and DU-145 cells were obtained from KCLB. MDA-MB-468 cells were obtained from ATCC. All cells were maintained in RPMI with 10% FBS and antibiotics. Cells were grown in a humidified 5% CO2 incubator at 37°C. Ba/F3-parental cells were grown in the presence of 10 ng/ml IL-3. NRAS-G12D or NRAS-G12V transformed Ba/F3 cell lines (Ba/F3-NRAS-G12D, and Ba/F3-NRAS-G12V, respectively) were cultured without IL-3, which were established by the procedure described as previously ([30]).
(§2) Approximately 3.0 × 10^3 cells/well were seeded in a 96-well cell culture plate. After stabilization, 1/3 serially diluted compound in DMSO was treated to the cell. […] All GI50 values were obtained in duplicate with three independent assays and averages with standard deviation are presented.

Another experiment concerns HCT-116 (KRAS-G13D). As to the kind of experiment: Anti-proliferation assay on HCT-116. Particulars: Homo sapiens, HCT-116; 72 h treatment; average with SD (n = 3, duplicate). Here is the method: as §1, §2
Another experiment deals with MDA-MB-231 (KRAS-G13D). As to the kind of experiment: Anti-proliferation assay on MDA-MB-231. As to conditions: Homo sapiens, MDA-MB-231; 72 h treatment; average with SD (n = 3, duplicate). On the procedure: as §1, §2
A further experiment relates to SW480 (KRAS-G12V). As to the kind of experiment: Anti-proliferation assay on SW480. Particulars: Homo sapiens, SW480; 72 h treatment; average with SD (n = 3, duplicate). Here is the method: as §1, §2

A word on the GI50: it is the concentration at which growth is held to half of that of the control. Higher therefore signals lower sensitivity of the cells.

`Cc1ccc(NC(=O)c2cccc(C(F)(F)F)c2)cc1N1Cc2cnc(Nc3cnn(C4CCN(S(C)(=O)=O)CC4)c3)nc2N(C)C1=O` [SIJ1772, N-(4-Methyl-3-(1-methyl-7-((1-(1-(methylsulfonyl)piperidin-4-yl)-1H-pyrazol-4-yl)amino)-2-oxo-1,4-dihydropyrimido[4,5-d]pyrimidin-3(2H)-yl)phenyl)-3-(trifluoromethyl)benzamide]: the GI50 with U937 (KRAS, NRAS-wt) was found to be 9590 ± 832 nM; in the experiment with HCT-116 (KRAS-G13D) it was 38 ± 28 nM; with MDA-MB-231 (KRAS-G13D) it was 58 ± 1 nM; in the experiment on SW480 (KRAS-G12V), 447 ± 173 nM.
For the molecule `CCN1CCN(c2cccc(Nc3ncc4c(n3)N(C)C(=O)N(c3cc(NC(=O)c5cccc(C(F)(F)F)c5)ccc3C)C4)c2)CC1` [SIJ1795, N-(3-(7-((3-(4-Ethylpiperazin-1-yl)phenyl)amino)-1-methyl-2-oxo-1,4-dihydropyrimido[4,5-d]pyrimidin-3(2H)-yl)-4-methylphenyl)-3-(trifluoromethyl)benzamide], the GI50 is 1000 ± 126 nM with U937 (KRAS, NRAS-wt); 33 ± 6 nM in the experiment with HCT-116 (KRAS-G13D); 53 ± 8 nM with MDA-MB-231 (KRAS-G13D); 245 ± 12 nM in the experiment with SW480 (KRAS-G12V).

For the origin of these results see publication PMC8695447, “Novel Small Molecules Capable of Blocking mtRAS-Signaling Pathway” (Frontiers in Oncology, 2021).
